Experimental data taken from ChEMBL document CHEMBL1154568, “Sulcatin, a novel antiproliferative N-methylpyridinium alkaloid from the ascidian Microcosmus vulgaris” (J Nat Prod, 2000).
Calls of active or inactive are those of the source. The calls are words filed in the database; no cut-off is given here.

Legend:
J774 = assay: Antiproliferative activity against mouse J774 cells after 96 hrs by MTT assay; type: cell-based; conditions: j774, 96 h
WEHI = assay: Antiproliferative activity against mouse WEHI 164 cells after 96 hrs by MTT assay; type: functional, cell-based

In the case of `Cc1cc[n+](C)cc1CCC(=O)[O-]` [SULCATIN], the Activity (J774) is reported as “Active” and the Activity (WEHI) is reported as “Active”.
